Laboratory results as given in US20240018123A1, “COMPOUND FOR INHIBITING OR DISINTEGRATING ANDROGEN RECEPTOR, AND PHARMACEUTICAL USE THEREOF” (KOREA RESEARCH INSTITUTE OF CHEMICAL TECHNOLOGY, priority 2020, published 2024).

Test system: VCaP cells
Assay: Cytotoxicity assessment (Cell-titer-glo cell viability), VCaP
Conditions: read-out: VCaP (CC50); VCaP cells, 6 days of treatment, Cell-titer-glo, vs DMSO

Row | SMILES | CC50
1 | CC1(C)C(NC(=O)c2ccc(C#CC3CCN(CC4CCN(C(=O)C5CN(c6ccc7nnn(C8CCC(=O)NC8=O)c(=O)c7c6)C5)CC4)CC3)cc2)C(C)(C)C1Oc1ccc(C#N)c(Cl)c1 (stereo not shown) [Example 96, N-((1r,3r)-3-(3-chloro-4-cyanophenoxy)-2,2,4,4-tetramethylcyclobutyl)-4-((1-((1-(1-(3-(2,6-dioxopiperidin-3-yl)-4-oxo-3,4-dihydrobenzo[d][1,2,3]triazin-6-yl)azetidine-3-carbonyl)piperidin-4-yl)methyl)piperidin-4-yl)ethynyl)benzamide] | 0.00803 µM
2 | CC1(C)C(NC(=O)c2ccc(CCN3CCN(CC4CCN(C(=O)C5CN(c6ccc7nnn(C8CCC(=O)NC8=O)c(=O)c7c6)C5)CC4)CC3)cc2)C(C)(C)C1Oc1ccc(C#N)c(Cl)c1 (stereo not shown) [Example 109, N-((1r,3r)-3-(3-chloro-4-cyanophenoxy)-2,2,4,4-tetramethylcyclobutyl)-4-(2-(4-((1-(1-(3-(2,6-dioxopiperidin-3-yl)-4-oxo-3,4-dihydrobenzo[d][1,2,3]triazin-6-yl)azetidine-3-carbonyl)piperidin-4-yl)methyl)piperazin-1-yl)ethyl)benzamide] | 0.013 µM
3 | CC1(C)C(NC(=O)c2ccc(C#CCC3CCN(CC4CCN(C(=O)CNc5ccc6nnn(C7CCC(=O)NC7=O)c(=O)c6c5)CC4)CC3)cc2)C(C)(C)C1Oc1ccc(C#N)c(Cl)c1 (stereo not shown) [Example 118, N-((1r,3r)-3-(3-chloro-4-cyanophenoxy)-2,2,4,4-tetramethylcyclobutyl)-4-(3-(1-((1-((3-(2,6-dioxopiperidin-3-yl)-4-oxo-3,4-dihydrobenzo[d][1,2,3]triazin-6-yl)glycyl)piperidin-4-yl)methyl)piperidin-4-yl)prop-1-yn-1-yl)benzamide] | 0.017 µM
4 | CC1(C)C(NC(=O)c2ccc(-n3cc(CCNC(=O)C4CCN(c5ccc6nnn(C7CCC(=O)NC7=O)c(=O)c6c5)CC4)nn3)cc2)C(C)(C)C1Oc1ccc(C#N)c(Cl)c1 (stereo not shown) [Example 154, N-(2-(1-(4-(((1r,3r)-3-(3-chloro-4-cyanophenoxy)-2,2,4,4-tetramethylcyclobutyl)carbamoyl)phenyl)-1H-1,2,3-triazol-4-yl)ethyl)-1-(3-(2,6-dioxopiperidin-3-yl)-4-oxo-3,4-dihydrobenzo[d][1,2,3]triazin-6-yl)piperidine-4-carboxamide] | 0.0416 µM
5 | CC1(C)C(NC(=O)c2cnc(N3CCN(CC4CCN(C(=O)C5CN(c6ccc7nnn(C8CCC(=O)NC8=O)c(=O)c7c6)C5)CC4)CC3)nc2)C(C)(C)C1Oc1ccc(C#N)c(Cl)c1 (stereo not shown) [Example 146, N-((1r,3r)-3-(3-chloro-4-cyanophenoxy)-2,2,4,4-tetramethylcyclobutyl)-2-(4-((1-(1-(3-(2,6-dioxopiperidin-3-yl)-4-oxo-3,4-dihydrobenzo[d][1,2,3]triazin-6-yl)azetidine-3-carbonyl)piperidin-4-yl)methyl)piperazin-1-yl)pyrimidine-5-carboxamide] | ~0.01 µM
6 | CC1(C)C(NC(=O)c2ccc(C#CCC3CCN(CC4CCN(C(=O)COc5ccc6nnn(C7CCC(=O)NC7=O)c(=O)c6c5)CC4)CC3)cc2)C(C)(C)C1Oc1ccc(C#N)c(Cl)c1 (stereo not shown) [Example 119, N-((1r,3r)-3-(3-chloro-4-cyanophenoxy)-2,2,4,4-tetramethylcyclobutyl)-4-(3-(1-((1-(2-((3-(2,6-dioxopiperidin-3-yl)-4-oxo-3,4-dihydrobenzo[d][1,2,3]triazin-6-yl)oxy)acetyl)piperidin-4-yl)methyl)piperidin-4-yl)prop-1-yn-1-yl)benzamide] | 0.036 µM
7 | CC1(C)C(NC(=O)c2ccc(-n3cc(CN4CCN(c5ccc6nnn(C7CCC(=O)NC7=O)c(=O)c6c5)CC4)nn3)cc2)C(C)(C)C1Oc1ccc(C#N)c(Cl)c1 (stereo not shown) [Example 120, N-((1r,3r)-3-(3-chloro-4-cyanophenoxy)-2,2,4,4-tetramethylcyclobutyl)-4-(4-((4-(3-(2,6-dioxopiperidin-3-yl)-4-oxo-3,4-dihydrobenzo[d][1,2,3]triazin-6-yl)piperazin-1-yl)methyl)-1H-1,2,3-triazol-1-yl)benzamide] | 0.0297 µM
